ChEMBL document CHEMBL1152004, “Chloramphenicol: High dilution FT-IR evidence for an intramolecular hydrogen bond” (Bioorg Med Chem Lett, 1991)

Biological target: Ribosome
Test: Inhibition of protein biosynthesis at the level of the peptidyl transferase center of the 50 s ribosomal subunit
Type: subcellular

For `O=C(N[C@H](CO)[C@H](O)c1ccc([N+](=O)[O-])cc1)C(Cl)Cl` [CHLORAMPHENICOL], the Kd was about 1000 nM.
